Assay results as given in patent US20220125042A1, “CRYOPROTECTANT AND/OR CRYOPRESERVANT COMPOSITION, METHODS AND USES THEREOF” (UNIVERSIDADE NOVA DE LISBOA, priority 2017, published 2022).

Columns and labels:
[1] = tested on: L929 cell line; experiment: Cryopreservation (freezing/thawing) of cells with cryoprotective agent; morphology, live-dead, DAPI-Phalloidin and MTS viability after thawing; type: cell-based; conditions: 10% cryopreservant, FIG. 4
Protocol: In an embodiment, the cells were freezed and thawed, in particular the cells were collected by centrifugation (300 rpm for 5 min) and suspended in cool mixture with FBS and cryopreservant (DMSO or Treh-Gly; 5% and 10% cryopresenvant in the FBS). The cells and freezing medium were dispensed into cryotubes (Nunc) (1×10^6 cells/1 mL), and immediately placed into a freezing box (Mr. Frosty) at −20° C. for 2 h. Latter they were placed for 24 h at −80° C. and then the cryotubes were placed in liquid nitrogen. The cells were frozen for 1, 2 and 3 months. As control trehalose and glycerol alone were used in the same concentration. […] In an embodiment, the MTS cell viability assay was conducted as follows: the influence of the cryopreservants was determined by MTS assay (Cell Titer 96 Aqueous One Solution Cell Proliferation Assay, Promega, USA) after 24 h and 72 h of culture. […] The absorbance was measured at a wavelength of 490 nm using a microplate spectrometer (Synergy HT, Bio-TEK, USA). To the results of absorbance was subtracting the absorbance obtained by blank (culture medium MTS with MTS reagent). In an embodiment, the live/dead cell viability assay was used (calcein AM/propidium iodide (PI) staining) (n=5 samples per well) to evaluated cell viability. […] In an embodiment, in vitro biological evaluation of NADES performance as cryopreservant was assessed using the L929 cell line. […]

[2] = tested on: L929 cell lines; experiment: Direct contact of NADES with cell culture, viability by MTS assay; type: cell-based; conditions: FIG. 3
Protocol: In an embodiment, the L929 cell lines were grown in DMEM (Sigma, USA), supplemented with 10% heat-inactivetes fetal bovine serum (FBS, Biochron AG, Germany) and 1% antibiotic-antimicotic (Gibco, USA). The cells were cultured in a humidified atmosphere of 37° C., with 5% CO2.
In an embodiment, the viability of the systems prepared was measured using a method of direct contact with cells (Direct−contact of NADES with cell culture). The cells were seeded onto a 96-well plate for 24 h in the total 1×10^4 cells/well. After 24 h, the medium was removed and extracts with different percentage of NADES, in particular 1%, 5%, 10% and 20% in culture medium were added. The viability of the cells cultured with these extracts was determined by MTS assay, after 24 h and 72 h.
In an embodiment, the MTS cell viability assay was conducted as follows: the influence of the cryopreservants was determined by MTS assay (Cell Titer 96 Aqueous One Solution Cell Proliferation Assay, Promega, USA) after 24 h and 72 h of culture. […] The absorbance was measured at a wavelength of 490 nm using a microplate spectrometer (Synergy HT, Bio-TEK, USA). To the results of absorbance was subtracting the absorbance obtained by blank (culture medium MTS with MTS reagent). […]

| Structure (SMILES) | morphological analysis and cell viability after cryopreservation [1] | cell viability in contact with cells ([2]; 10% and 20% in the culture media) | cell viability in contact with cells ([2]; low concentrations, 1 or 5% in culture media) |
| --- | --- | --- | --- |
| OC[C@H]1O[C@H](O[C@H]2O[C@H](CO)[C@@H](O)[C@H](O)[C@H]2O)[C@H](O)[C@@H](O)[C@@H]1O [trehalose] | somewhat compromised |  |  |
| C[S+](C)[O-] [DMSO] |  | cell dead | very low viability |
| OCC(O)CO [glycerol] | somewhat compromised |  |  |
